Assays:
[1] = molecular target: T1, adenosine A2a (human) membrane (Homo sapiens, UniProt P29274); experiment: A2A adenosine receptor radioligand binding assay ([3H] CGS-21680); details: radioligand [3H] CGS-21680 6 nM, RT 2 hours
T1 construct: purchased PerkinElmer RBHA2AM400UA
Description: A second A2A adenosine receptor radioligand binding assay protocol was used. The protocol used adenosine A2a (human) membrane (PerkinElmer RBHA2AM400UA) at a concentration of […]/well/100 μl and the radioligand [3H] CGS-21680 (Cat No. PerkinElmer-NET1021250UC) at a final concentration of 6 nM. Testing compounds were diluted with DMSO to make 8-point 4-fold serial dilution, starting at 0.2 mM. CGS-15943 was the reference compound. 1 μl of compounds/high control/low control was transferred to the assay plate according to a plate map, followed by 100 μl of membrane stocks and 100 μl of radioligand, in assay buffer (50 mM Tris-HCl, 10 mM MgCl2, 1 mM EDTA, pH 7.4). The plate was sealed and incubated at RT for 2 hours. Unifilter-96 GF/C filter plates (Perkin Elmer Cat #6005174) were soaked with 50 μl of 0.3% PEI per well for at least 0.5 hour at room temperature. When the binding assays were completed, the reaction mixtures were filtered through GF/C plates using Perkin Elmer Filtermate Harvester, and each plate washed 4 times with cold wash buffer (50 mM Tris-HCl, 154 mM NaCl, pH 7.4). The filter plates were dried for 1 hour at 50 degrees. After drying, the bottom of the filter plate wells was sealed, 50 μl of Perkin Elmer Microscint 20 cocktail was added, and the top of the filter plate was sealed. ^3H trapped on the filter was counted using Perkin Elmer MicroBeta2 Reader. The data were analyzed with GraphPad Prism 5 to obtain binding IC50 values. The “Inhibition [% Control]” was calculated using the equation: % Inh=(1−Background subtracted Assay value/Background subtracted HC value)*100, where HC is high control.

[2] = molecular target: T2, human recombinant adenosine A2A receptor (Homo sapiens, UniProt P29274); experiment: cAMP assay (Assay 2) in HEK-293 cells expressing A2A receptor; format: cell-based; details: HEK-293 cells expressing human recombinant adenosine A2A receptor; reducing A2A cAMP levels
T2 construct: expressed in transfected cells; host or cells: HEK-293
T2 sequence (P29274 whole entry): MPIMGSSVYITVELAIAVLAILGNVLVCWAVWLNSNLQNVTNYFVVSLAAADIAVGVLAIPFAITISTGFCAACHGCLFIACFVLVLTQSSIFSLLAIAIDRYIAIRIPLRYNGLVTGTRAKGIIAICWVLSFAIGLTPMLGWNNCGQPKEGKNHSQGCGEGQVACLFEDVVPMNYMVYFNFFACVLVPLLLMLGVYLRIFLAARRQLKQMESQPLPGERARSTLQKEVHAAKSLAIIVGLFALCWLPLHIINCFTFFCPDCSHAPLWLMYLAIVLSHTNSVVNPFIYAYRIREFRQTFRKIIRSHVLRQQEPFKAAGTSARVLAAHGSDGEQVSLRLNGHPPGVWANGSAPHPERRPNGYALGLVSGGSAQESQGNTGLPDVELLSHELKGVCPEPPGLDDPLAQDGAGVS
Description: The functional activity of compound 1.5 was tested using Assay 2 below, to detect the presence of cAMP. Assay 1 is an alternative assay for this purpose. Activation of G-protein coupled receptors (such as A2A) results in activation of adenylyl cyclase which converts ATP into cAMP which is used as a downstream signaling molecule. Molecules which act as GPCR (or specifically A2A receptor) antagonists cause a decrease in intracellular cAMP concentration.
Assay 2 (Table B2): This assay used HEK-293 cells expressing human recombinant adenosine A2A receptor that were grown prior to the test in media without antibiotic. 100 nL of test articles at 100× of final concentration were transferred to assay plate by Echo. Cells were washed twice with 5 mL of PBS and 10 pL of cells were mixed with 5 mL PBS. After aspirating the PBS and adding 1.5 mL versine, cells were incubated at 37° C. for 2-5 min. After centrifugation, 4 mL of medium was added and adjusted cell density to 5,000 cells/well with Stimulation Buffer. 10 pL of cells were aliquoted to the assay plate, centrifuged at 1000 rpm for 1 minute, and incubated for 60 minutes at room temperature. 5 pL 4× Eu-cAMP tracer solution and 5 pL 4× Ulight™-anti-cAMP solution were added to assay plate, followed by centrifugation and 60-minute incubation at room temperature. Plates were read on EnVision. […]

T1 sequence (P29274 whole entry): as above

O=c1ccc2nc(-c3ccc4ncccc4c3)c(-c3ccccc3)nc2[nH]1 [Compound 1.4, 3-phenyl-2-(quinolin-6-yl)pyrido[2,3-b]pyrazin-6(5H)-one]
IC50 [1]: 5.5 nM

O=c1cc[nH]c2nc(-c3ccccc3)c(-c3ccc4ncccc4c3)nc12 [Compound 1.5, 3-phenyl-2-(quinolin-6-yl)pyrido[2,3-b]pyrazin-8(5H)-one]
IC50 [2]: 325 nM | IC50 [1]: 18 nM

Cn1ccc(=O)c2nc(-c3ccc4ncccc4c3)c(-c3ccccc3)nc21 [Compound 1.8, 5-methyl-3-phenyl-2-(quinolin-6-yl)pyrido[2,3-b]pyrazin-8(5H)-one]
IC50 [1]: 958 nM

O=c1ccc2nc(-c3cc(Cl)c4ncccc4c3)c(-c3ccccc3)nc2[nH]1 [Compound 1.12, 2-(8-chloroquinolin-6-yl)-3-phenylpyrido[2,3-b]pyrazin-6(5H)-one]
IC50 [1]: 6.6 nM
